Measured values from patent US10376499B2, “Combination therapy for treatment of resistant bacterial infections” (priority 2014, dated 2019).
Converted amounts (≈) assume the structure as drawn.

Tested on: A. baumannii
Test: MIC by broth microdilution (CLSI), panel of 60 A. baumannii clinical isolates (Example 1)
[1] = Acinetobacter baumannii, strain ARC593, OXA-98
[2] = Acinetobacter baumannii, strain ARC2461, OXA-66, TEM-1
[3] = Acinetobacter baumannii, strain ARC2462, TEM-1, OXA-66
[4] = Acinetobacter baumannii, strain ARC2598, OXA*, TEM-1, OXA-113
[5] = Acinetobacter baumannii, strain ARC2635, OXA-65, OXA-40, TEM-1
[6] = Acinetobacter baumannii, strain ARC2636, OXA-65, OXA-40, TEM-1
[7] = Acinetobacter baumannii, strain ARC2674, SHV-5, OXA-113
[8] = Acinetobacter baumannii, strain ARC2675, SHV-5, OXA-113
[9] = Acinetobacter baumannii, strain ARC2681, OXA-40, TEM-1, OXA-132
[10] = Acinetobacter baumannii, strain ARC2682, SHV-5, OXA-113
[11] = Acinetobacter baumannii, strain ARC2777, OXA-172, TEM-1
[12] = Acinetobacter baumannii, strain ARC2778, OXA-40, TEM-1, OXA-65
[13] = Acinetobacter baumannii, strain ARC2780 (A. baumannii/calcoaceticus complex), OXA*, OXA-2, IMP-1
[14] = Acinetobacter baumannii, strain ARC2782, OXA-66, OXA-23, TEM-1, PER-1
[15] = Acinetobacter baumannii, strain ARC2788, OXA-65, TEM-1
[16] = Acinetobacter baumannii, strain ARC3484, TEM-1, OXA-23, OXA-64
[17] = Acinetobacter baumannii, strain ARC3485, OXA-82
[18] = Acinetobacter baumannii, strain ARC3486, OXA-72, OXA-66, TEM-1
[19] = Acinetobacter baumannii, strain ARC3487, OXA-20, OXA-58, OXA-66
[20] = Acinetobacter baumannii, strain ARC3488, OXA*, OXA-68
[21] = Acinetobacter baumannii, strain ARC3489, OXA*, OXA-68
[22] = Acinetobacter baumannii, strain ARC3490, TEM-1+, PSE-2, OXA-69
[23] = Acinetobacter baumannii, strain ARC3491 (A. baumannii/calcoaceticus complex), OXA-215
[24] = Acinetobacter baumannii, strain ARC3492, OXA-40, OXA-132, TEM-1
[25] = Acinetobacter baumannii, strain ARC3493, OXA-40, OXA-66
[26] = Acinetobacter baumannii, strain ARC3494, OXA-65
[27] = Acinetobacter baumannii, strain ARC3495, OXA-40, OXA-109
[28] = Acinetobacter baumannii, strain ARC3513, TEM-1, OXA-23, OXA-65
[29] = Acinetobacter baumannii, strain ARC3515, OXA-64, OXA-58
[30] = Acinetobacter baumannii, strain ARC3657, OXA-130
[31] = Acinetobacter baumannii, strain ARC3658, OXA-66, PER-1, TEM-1, OXA-23
[32] = Acinetobacter baumannii, strain ARC3659, OXA-23, OXA*
[33] = Acinetobacter baumannii, strain ARC3882, OXA-23, NDM-1, OXA-10*
[34] = Acinetobacter baumannii, strain ARC5073, OXA-23, TEM-1, OXA-64, PER-1
[35] = Acinetobacter baumannii, strain ARC5074, GES*, TEM-1, OXA-51
[36] = Acinetobacter baumannii, strain ARC5075, SHV-5, OXA-113
[37] = Acinetobacter baumannii, strain ARC5076, TEM-1, OXA-23, OXA-66
[38] = Acinetobacter baumannii, strain ARC5077, OXA*, OXA-72
[39] = Acinetobacter baumannii, strain ARC5079, OXA-72, OXA-65
[40] = Acinetobacter baumannii, strain ARC5080, OXA-71, OXA-40
[41] = Acinetobacter baumannii, strain ARC5081, OXA-94, OXA-23
[42] = Acinetobacter baumannii, strain ARC5082, OXA-66, OXA-23
[43] = Acinetobacter baumannii, strain ARC5083, OXA-66, OXA-23
[44] = Acinetobacter baumannii, strain ARC5084, IMP-4(B), OXA-58, OXA-65
[45] = Acinetobacter baumannii, strain ARC5085, OXA*, TEM-1
[46] = Acinetobacter baumannii, strain ARC5086, OXA*, TEM-1, OXA-72, OXA-66
[47] = Acinetobacter baumannii, strain ARC5087, OXA-66, OXA-23
[48] = Acinetobacter baumannii, strain ARC5088, OXA-20, OXA-58, OXA-66
[49] = Acinetobacter baumannii, strain ARC5089, PER*, TEM-1, OXA-23, OXA-66
[50] = Acinetobacter baumannii, strain ARC5091, OXA-82, OXA-23
[51] = Acinetobacter baumannii, strain ARC5092, OXA-23, OXA-64

**Q.** How did the MIC50 (Acinetobacter baumannii) turn out when `C[C@H]1COc2c(N3CCN(C)CC3)c(F)cc3c(=O)c(C(=O)O)cn1c23` [LEVO, levofloxacin] was run?
**A.** 8 µg/mL (≈ 22.1 µM)

**Q.** And the MIC90 (Acinetobacter baumannii)?
**A.** 32 µg/mL (≈ 88.6 µM)

**Q.** What about the MIC [1] of the same compound?
**A.** 0.25 µg/mL (≈ 0.692 µM)

**Q.** And the MIC [2]?
**A.** 16 µg/mL (≈ 44.3 µM)

**Q.** What about the MIC [3] of the same compound?
**A.** 16 µg/mL (≈ 44.3 µM)

**Q.** And the MIC [4]?
**A.** 4 µg/mL (≈ 11.1 µM)

**Q.** What about the MIC [5] of the same compound?
**A.** 16 µg/mL (≈ 44.3 µM)

**Q.** What about the MIC [6] of the same compound?
**A.** 16 µg/mL (≈ 44.3 µM)

**Q.** And the MIC [7]?
**A.** 16 µg/mL (≈ 44.3 µM)

**Q.** And the MIC [8]?
**A.** 32 µg/mL (≈ 88.6 µM)

**Q.** And the MIC [9]?
**A.** 16 µg/mL (≈ 44.3 µM)

**Q.** What about the MIC [10] of the same compound?
**A.** 16 µg/mL (≈ 44.3 µM)

**Q.** What about the MIC [11] of the same compound?
**A.** 32 µg/mL (≈ 88.6 µM)

**Q.** What about the MIC [12] of the same compound?
**A.** 32 µg/mL (≈ 88.6 µM)

**Q.** And the MIC [13]?
**A.** 4 µg/mL (≈ 11.1 µM)

**Q.** And the MIC [14]?
**A.** 4 µg/mL (≈ 11.1 µM)

**Q.** And the MIC [15]?
**A.** 32 µg/mL (≈ 88.6 µM)

**Q.** What about the MIC [16] of the same compound?
**A.** 8 µg/mL (≈ 22.1 µM)

**Q.** And the MIC [17]?
**A.** 16 µg/mL (≈ 44.3 µM)

**Q.** What about the MIC [18] of the same compound?
**A.** 8 µg/mL (≈ 22.1 µM)

**Q.** And the MIC [19]?
**A.** 8 µg/mL (≈ 22.1 µM)

**Q.** And the MIC [20]?
**A.** 32 µg/mL (≈ 88.6 µM)

**Q.** And the MIC [21]?
**A.** 16 µg/mL (≈ 44.3 µM)

**Q.** And the MIC [22]?
**A.** 16 µg/mL (≈ 44.3 µM)

**Q.** And the MIC [23]?
**A.** 1 µg/mL (≈ 2.77 µM)

**Q.** What about the MIC [24] of the same compound?
**A.** 8 µg/mL (≈ 22.1 µM)

**Q.** And the MIC [25]?
**A.** 4 µg/mL (≈ 11.1 µM)

**Q.** And the MIC [26]?
**A.** 0.25 µg/mL (≈ 0.692 µM)

**Q.** What about the MIC [27] of the same compound?
**A.** 4 µg/mL (≈ 11.1 µM)

**Q.** What about the MIC [28] of the same compound?
**A.** 16 µg/mL (≈ 44.3 µM)

**Q.** What about the MIC [29] of the same compound?
**A.** 8 µg/mL (≈ 22.1 µM)

**Q.** What about the MIC [30] of the same compound?
**A.** 16 µg/mL (≈ 44.3 µM)

**Q.** And the MIC [31]?
**A.** 8 µg/mL (≈ 22.1 µM)

**Q.** And the MIC [32]?
**A.** 8 µg/mL (≈ 22.1 µM)

**Q.** What about the MIC [33] of the same compound?
**A.** 4 µg/mL (≈ 11.1 µM)

**Q.** What about the MIC [34] of the same compound?
**A.** 8 µg/mL (≈ 22.1 µM)

**Q.** What about the MIC [35] of the same compound?
**A.** 4 µg/mL (≈ 11.1 µM)

**Q.** And the MIC [36]?
**A.** 32 µg/mL (≈ 88.6 µM)

**Q.** And the MIC [37]?
**A.** 8 µg/mL (≈ 22.1 µM)

**Q.** What about the MIC [38] of the same compound?
**A.** 16 µg/mL (≈ 44.3 µM)

**Q.** What about the MIC [39] of the same compound?
**A.** 16 µg/mL (≈ 44.3 µM)

**Q.** What about the MIC [40] of the same compound?
**A.** 16 µg/mL (≈ 44.3 µM)

**Q.** What about the MIC [41] of the same compound?
**A.** 8 µg/mL (≈ 22.1 µM)

**Q.** What about the MIC [42] of the same compound?
**A.** 8 µg/mL (≈ 22.1 µM)

**Q.** And the MIC [43]?
**A.** > 32 µg/mL

**Q.** What about the MIC [44] of the same compound?
**A.** 4 µg/mL (≈ 11.1 µM)

**Q.** And the MIC [45]?
**A.** 32 µg/mL (≈ 88.6 µM)

**Q.** And the MIC [46]?
**A.** 16 µg/mL (≈ 44.3 µM)

**Q.** What about the MIC [47] of the same compound?
**A.** > 32 µg/mL

**Q.** And the MIC [48]?
**A.** 8 µg/mL (≈ 22.1 µM)

**Q.** What about the MIC [49] of the same compound?
**A.** 16 µg/mL (≈ 44.3 µM)

**Q.** And the MIC [50]?
**A.** > 32 µg/mL

**Q.** What about the MIC [51] of the same compound?
**A.** 8 µg/mL (≈ 22.1 µM)

**Q.** And the MIC (strain ARC2058, OXA-95)?
**A.** 0.125 µg/mL (≈ 0.346 µM)

**Q.** What about the MIC (strain ARC2779 (A. baumannii/calcoaceticus complex), OXA-2, VIM-2) of the same compound?
**A.** 0.125 µg/mL (≈ 0.346 µM)

**Q.** What does the source list for `CN(C)[C@@H]1C(O)=C(C(N)=O)C(=O)[C@@]2(O)C(O)=C3C(=O)c4c(O)cccc4[C@@](C)(O)[C@H]3C[C@@H]12` [TET, tetracycline]?
**A.** MIC50 (Acinetobacter baumannii): 16 µg/mL (≈ 36 µM); MIC90 (Acinetobacter baumannii): > 32 µg/mL; MIC [1]: 2 µg/mL (≈ 4.5 µM); MIC (Acinetobacter baumannii, strain ARC2058, OXA-95): 1 µg/mL (≈ 2.25 µM); MIC [2]: > 32 µg/mL; MIC [3]: > 32 µg/mL; MIC [4]: > 32 µg/mL; MIC [5]: 8 µg/mL (≈ 18 µM); MIC [6]: 16 µg/mL (≈ 36 µM); MIC [7]: > 32 µg/mL; MIC [8]: 16 µg/mL (≈ 36 µM); MIC [9]: > 32 µg/mL; MIC [10]: 8 µg/mL (≈ 18 µM); MIC [11]: 32 µg/mL (≈ 72 µM); MIC [12]: > 32 µg/mL; MIC (Acinetobacter baumannii, strain ARC2779 (A. baumannii/calcoaceticus complex), OXA-2, VIM-2): 2 µg/mL (≈ 4.5 µM); MIC [13]: 2 µg/mL (≈ 4.5 µM); MIC [14]: > 32 µg/mL; MIC [15]: 4 µg/mL (≈ 9 µM); MIC [16]: > 32 µg/mL; MIC [17]: 32 µg/mL (≈ 72 µM); MIC [18]: > 32 µg/mL; MIC [19]: 16 µg/mL (≈ 36 µM); MIC [20]: > 32 µg/mL; MIC [21]: > 32 µg/mL; MIC [22]: 8 µg/mL (≈ 18 µM); MIC [23]: 4 µg/mL (≈ 9 µM); MIC [24]: > 32 µg/mL; MIC [25]: > 32 µg/mL; MIC [26]: 2 µg/mL (≈ 4.5 µM); MIC [27]: > 32 µg/mL; MIC [28]: 8 µg/mL (≈ 18 µM); MIC [29]: > 32 µg/mL; MIC [30]: 8 µg/mL (≈ 18 µM); MIC [31]: > 32 µg/mL; MIC [32]: 8 µg/mL (≈ 18 µM); MIC [33]: 8 µg/mL (≈ 18 µM); MIC [34]: > 32 µg/mL; MIC [35]: 1 µg/mL (≈ 2.25 µM); MIC [36]: > 32 µg/mL; MIC [37]: > 32 µg/mL; MIC [38]: > 32 µg/mL; MIC [39]: 8 µg/mL (≈ 18 µM); MIC [40]: 16 µg/mL (≈ 36 µM); MIC [41]: 2 µg/mL (≈ 4.5 µM); MIC [42]: > 32 µg/mL; MIC [43]: > 32 µg/mL; MIC [44]: 2 µg/mL (≈ 4.5 µM); MIC [45]: > 32 µg/mL; MIC [46]: > 32 µg/mL; MIC [47]: > 32 µg/mL; MIC [48]: 16 µg/mL (≈ 36 µM); MIC [49]: 4 µg/mL (≈ 9 µM); MIC [50]: 32 µg/mL (≈ 72 µM); MIC [51]: 32 µg/mL (≈ 72 µM)
